In PubChem BioAssay AID256 (DTP/NCI, 2004) one finds T/C data, which are given here for 27 molecules.

Structures are written as SMILES. Toxic doses and inconclusive results are not listed.

The experiment deals with CD2F1 mice, L1210 leukemia ip, survival T/C. The experiment is described as follows: NCI In Vivo Anticancer Drug Screen. Data for tumor model L1210 Leukemia (intraperitoneal) in CD2F1 (CDF1) mice. Conditions: higher = longer survival. In short, it runs like this: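 Ratio T/C, where T is the treated-group value and C the vehicle-dosed control value, from mice implanted with a transplantable tumor.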

Where [1] appears, read: endpoint: mean survival time, dose: 100.0 mg/kg/injection, schedule: Q01DX009 (ip), vehicle: saline with Tween-80.
[2] abbreviates: endpoint: mean survival time, dose: 100.0 mg/kg/injection, schedule: Q04DX003 (ip), vehicle: saline with Tween-80.
Setting [3] is: endpoint: mean survival time, dose: 200.0 mg/kg/injection, schedule: Q01DX009 (ip), vehicle: saline with Tween-80.
Setting [4] is: endpoint: mean survival time, dose: 200.0 mg/kg/injection, schedule: Q04DX003 (ip), vehicle: saline with Tween-80.
Where [5] appears, read: endpoint: mean survival time, dose: 400.0 mg/kg/injection, schedule: Q01DX009 (ip), vehicle: saline with Tween-80.
The mark [6] stands for this setting: endpoint: mean survival time, dose: 400.0 mg/kg/injection, schedule: Q04DX003 (ip), vehicle: saline with Tween-80.
Where [7] appears, read: endpoint: mean survival time, dose: 12.5 mg/kg/injection, schedule: Q01DX009 (ip), vehicle: saline with Tween-80.
Where [8] appears, read: endpoint: mean survival time, dose: 100.0 mg/kg/injection, schedule: Q04DX003 (ip), vehicle: saline.
[9] abbreviates: endpoint: mean survival time, dose: 200.0 mg/kg/injection, schedule: Q04DX003 (ip), vehicle: saline.
Where [10] appears, read: endpoint: mean survival time, dose: 100.0 mg/kg/injection, schedule: Q04DX002 (ip), vehicle: saline with Tween-80.
Where [11] appears, read: endpoint: mean survival time, dose: 200.0 mg/kg/injection, schedule: Q04DX002 (ip), vehicle: saline with Tween-80.
Setting [12] is: endpoint: mean survival time, dose: 100.0 mg/kg/injection, schedule: Q01DX001 (ip), vehicle: saline with Tween-80.
The mark [13] stands for this setting: endpoint: mean survival time, dose: 200.0 mg/kg/injection, schedule: Q01DX001 (ip), vehicle: saline with Tween-80.
The mark [14] stands for this setting: endpoint: mean survival time, dose: 400.0 mg/kg/injection, schedule: Q01DX001 (ip), vehicle: saline with Tween-80.
The mark [15] stands for this setting: endpoint: mean survival time, dose: 75.0 mg/kg/injection, schedule: Q01DX001 (ip), vehicle: saline.

Take `CC(=O)OCC1OC(n2ccc(O)cc2=O)C(O)C1O` (stereo not drawn): the T/C was 160 % of control (endpoint: median survival time, dose: 44.0 mg/kg/injection, schedule: Q01DX009 (ip), vehicle: saline + alcohol); 169 % of control (endpoint: median survival time, dose: 67.0 mg/kg/injection, schedule: Q01DX009 (ip), vehicle: saline + alcohol); 172 % of control (endpoint: median survival time, dose: 100.0 mg/kg/injection, schedule: Q01DX009 (ip), vehicle: saline + alcohol); 174 % of control (endpoint: median survival time, dose: 150.0 mg/kg/injection, schedule: Q01DX009 (ip), vehicle: saline + alcohol).
In the case of `CC12CCC(=O)C=C1CCCC2O` (stereo not drawn), the T/C was 97 % of control (endpoint: mean survival time, dose: 100.0 mg/kg/injection, schedule: Q04DX003 (ip), vehicle: saline sonified) and 112 % of control (endpoint: mean survival time, dose: 200.0 mg/kg/injection, schedule: Q04DX003 (ip), vehicle: saline sonified).
As for `N#Cc1nn(C2OC(COC(=O)c3ccccc3)C(OC(=O)c3ccccc3)C2OC(=O)c2ccccc2)c2nc[nH]c(=O)c12` (stereo not drawn), the T/C (endpoint: median survival time, dose: 12.5 mg/kg/injection, schedule: Q01DX005 (ip), vehicle: saline with Tween-80) is 107 % of control; the T/C (endpoint: median survival time, dose: 25.0 mg/kg/injection, schedule: Q01DX005 (ip), vehicle: saline with Tween-80) was 103 % of control; the T/C (endpoint: median survival time, dose: 50.0 mg/kg/injection, schedule: Q01DX005 (ip), vehicle: saline with Tween-80) was 97 % of control; the T/C (endpoint: median survival time, dose: 100.0 mg/kg/injection, schedule: Q01DX005 (ip), vehicle: saline with Tween-80) was 97 % of control; the T/C (endpoint: median survival time, dose: 200.0 mg/kg/injection, schedule: Q01DX005 (ip), vehicle: saline with Tween-80) was 119 % of control.
Turning to `O=C(O)/C=C/C(=O)NCCc1c[nH]c2ccccc12`, the T/C reads like this: under setting [1], 98 % of control; under setting [2], 93 % of control; under setting [3], 95 % of control; under setting [4], 95 % of control; under setting [5], 95 % of control; under setting [6], 95 % of control.
On to `CC1(C)N=C(N)N=C(N)N1c1ccc(CCCCc2ccc(Cl)cc2Cl)cc1`, for which the T/C is 98 % of control (endpoint: mean survival time, dose: 6.25 mg/kg/injection, schedule: Q01DX009 (ip), vehicle: saline with Tween-80); 96 % of control (endpoint: mean survival time, dose: 6.25 mg/kg/injection, schedule: Q04DX003 (ip), vehicle: saline sonified); 102 % of control under setting [7]; 98 % of control (endpoint: mean survival time, dose: 12.5 mg/kg/injection, schedule: Q04DX003 (ip), vehicle: saline sonified); 100 % of control (endpoint: mean survival time, dose: 25.0 mg/kg/injection, schedule: Q04DX003 (ip), vehicle: saline sonified).
For the molecule `CCN(CC)C(C(=O)Nc1ccccc1)C(=O)Nc1ccccc1`, the T/C under setting [1] was 98 % of control, the T/C under setting [3] was 93 % of control and the T/C under setting [5] was 98 % of control.
Regarding `CCOC(=O)/C=C/C(C(=O)OCC)C(=O)OCC`, the T/C by setting is: under setting [2], 103 % of control; under setting [4], 97 % of control; under setting [6], 101 % of control.
Take `CC(=O)Nc1ccc([N+](=O)[O-])cc1[N+](=O)[O-]`: the T/C is 100 % of control under setting [2] and 102 % of control under setting [4].
With `Cc1cc(=O)[nH]c2c1c(C#N)cn2C1CCCCC1`, the T/C runs as follows: under setting [8], 101 % of control; under setting [9], 89 % of control; (endpoint: mean survival time, dose: 400.0 mg/kg/injection, schedule: Q04DX003 (ip), vehicle: saline) 93 % of control.
Take `O=C(O)C1C2C=CC3(CN(CCc4ccccc4)C(=O)C13)O2` (stereo not drawn): the T/C runs as follows: under setting [10], 95 % of control; under setting [11], 95 % of control; (endpoint: mean survival time, dose: 400.0 mg/kg/injection, schedule: Q04DX002 (ip), vehicle: saline with Tween-80) 103 % of control.
Consider `CN(C)C(=S)[S][Sn]([CH3])([CH3])[CH3]`, for which the T/C (endpoint: mean survival time, dose: 0.39 mg/kg/injection, schedule: Q01DX009 (ip), vehicle: saline) was 115 % of control; the T/C (endpoint: mean survival time, dose: 0.78 mg/kg/injection, schedule: Q01DX009 (ip), vehicle: saline) was 107 % of control; the T/C (endpoint: mean survival time, dose: 1.56 mg/kg/injection, schedule: Q01DX009 (ip), vehicle: saline) was 95 % of control.
On to `CCC(CC)n1c(C)cc(=O)n1C(CC)CC`, for which the T/C by setting is: (endpoint: mean survival time, dose: 5.0 mg/kg/injection, schedule: Q01DX001 (ip), vehicle: saline) 97 % of control; (endpoint: mean survival time, dose: 10.0 mg/kg/injection, schedule: Q01DX001 (ip), vehicle: saline) 97 % of control; (endpoint: mean survival time, dose: 20.0 mg/kg/injection, schedule: Q01DX001 (ip), vehicle: saline) 95 % of control.
Regarding `COc1c(Cl)c(=O)oc2cc(C)c(Cl)c(C)c12`, the T/C by setting is: under setting [12], 93 % of control; under setting [13], 96 % of control; under setting [14], 96 % of control.
Consider `COc1csn[n+]1-c1ccc(C)cc1`, for which, under setting [15], the T/C is 104 % of control.
In the case of `C=CCCCCCCCCCCC(=O)OC`, the T/C runs as follows: under setting [1], 106 % of control; under setting [2], 93 % of control; under setting [3], 106 % of control; under setting [4], 94 % of control; under setting [5], 101 % of control.
On to `c1ccc(C[N+]23CCC(CC2)CC3)cc1`, for which the T/C runs as follows: (endpoint: mean survival time, dose: 6.25 mg/kg/injection, schedule: Q04DX003 (ip), vehicle: saline) 104 % of control; (endpoint: mean survival time, dose: 12.5 mg/kg/injection, schedule: Q04DX003 (ip), vehicle: saline) 103 % of control.
For the molecule `O=C(O)/C(=C\c1ccccc1)NC(=O)c1ccccc1`, the T/C was 95 % of control under setting [1], 96 % of control under setting [3] and 105 % of control under setting [5].
For `Cc1nn(-c2ccccc2)c2c1C(=O)NC2Cc1ccccc1` (stereo not drawn), the T/C (endpoint: mean survival time, dose: 50.0 mg/kg/injection, schedule: Q04DX002 (ip), vehicle: saline with Tween-80) is 103 % of control; the T/C under setting [10] is 100 % of control; the T/C under setting [11] is 100 % of control.
As to `C1OC2OC3OCOC3C2O1` (stereo not drawn), the T/C is, setting by setting: under setting [2], 101 % of control; under setting [4], 95 % of control; under setting [6], 95 % of control.
`Nc1ccccc1C1=Nc2cncnc2NC1`: the T/C under setting [15] is 104 % of control; the T/C (endpoint: mean survival time, dose: 150.0 mg/kg/injection, schedule: Q01DX001 (ip), vehicle: saline) is 102 % of control; the T/C (endpoint: mean survival time, dose: 300.0 mg/kg/injection, schedule: Q01DX001 (ip), vehicle: saline) is 93 % of control.
As to `CCNc1nc(NC(C)C)nc(OC)n1`, the T/C by setting is: (endpoint: mean survival time, dose: 50.0 mg/kg/injection, schedule: Q01DX009 (ip), vehicle: saline with Tween-80) 98 % of control; under setting [1], 93 % of control; under setting [8], 101 % of control; under setting [3], 96 % of control; under setting [9], 103 % of control.
`Clc1ccc2c(c1)Cc1cc(N(CCBr)CCBr)ccc1-2`: the T/C under setting [1] is 104 % of control, the T/C under setting [3] was 106 % of control and the T/C under setting [5] was 110 % of control.
Take `Cc1cc(N(CCOS(C)(=O)=O)CCOS(C)(=O)=O)ccc1C=Nc1ccc(C(=O)O)c(O)c1`: the T/C is 118 % of control (endpoint: mean survival time, dose: 4.0 mg/kg/injection, schedule: Q01DX009 (ip), vehicle: saline with Tween-80); 111 % of control (endpoint: mean survival time, dose: 6.0 mg/kg/injection, schedule: Q01DX009 (ip), vehicle: saline with Tween-80); 123 % of control under setting [7].
With `O=c1c(-c2ccccc2)nn(C2OC(CO)C(O)C(O)C2O)c(=S)n1-c1ccccc1` (stereo not drawn), the T/C by setting is: (endpoint: mean survival time, dose: 7.8 mg/kg/injection, schedule: Q01DX005 (ip), vehicle: water) 101 % of control; (endpoint: mean survival time, dose: 15.6 mg/kg/injection, schedule: Q01DX005 (ip), vehicle: water) 96 % of control; (endpoint: mean survival time, dose: 31.3 mg/kg/injection, schedule: Q01DX005 (ip), vehicle: water) 101 % of control; (endpoint: mean survival time, dose: 62.5 mg/kg/injection, schedule: Q01DX005 (ip), vehicle: water) 93 % of control; (endpoint: mean survival time, dose: 125.0 mg/kg/injection, schedule: Q01DX005 (ip), vehicle: water) 101 % of control.
`CCCCCCCCCCP(=O)(OCCCC)OCCCC`: the T/C (endpoint: mean survival time, dose: 25.0 mg/kg/injection, schedule: Q04DX003 (ip), vehicle: saline) is 102 % of control; the T/C (endpoint: mean survival time, dose: 50.0 mg/kg/injection, schedule: Q04DX003 (ip), vehicle: saline) was 102 % of control; the T/C under setting [8] is 100 % of control.
Take `O=C(O)c1cc(Cl)c(Cl)cn1`: the T/C was 97 % of control (endpoint: mean survival time, dose: 50.0 mg/kg/injection, schedule: Q01DX001 (ip), vehicle: saline with Tween-80); 98 % of control under setting [12]; 103 % of control under setting [13].
Regarding `Brc1sc(Br)c(Br)c1Br`, the T/C reads like this: under setting [12], 109 % of control; under setting [1], 100 % of control; under setting [13], 95 % of control; under setting [3], 101 % of control; under setting [14], 102 % of control; under setting [5], 101 % of control.
